{
  "source": "patent US20230129036A1",
  "about": "“AVENANTHRAMIDE COMPOSITIONS WITH IMPROVED SOLUBILITY COMPRISING 4-HYDROXYPHENONE” (priority 2020, published 2023)",
  "key": {"[1]": {"experiment": "Solubility / appearance of avenanthramide solutions with and without 4-hydroxyacetophenone, evaluated at 22° C.", "assay_type": "physicochemical", "protocol": "The solubility of avenanthramides A, B, C, D or L and Dihydroavenanthramide D in solution in combination with 4-hydroxyacetophenone in different concentrations was evaluated against a solution of avenanthram ides A, B, C, D and L without 4-hydroxyacetophenone.\nThe corresponding avenanthramides were presolved in ethanol or glycol. Water and 4-hydroxyacetophenone were added under stirring and heating up the solution to 60° C. The appearance of the solutions was evaluated at 22° C. according to the following Table 1: […]"}, "[2]": {"details": "Avn C, followed by Avn B and Avn A; cited from earlier work"}, "[3]": {"details": "addition of 4-hydroxyacetophenone in concentration of 0.1 or 0.5 wt % (Table 3, Table 4 b)"}},
  "data": [
    {"smiles": "O=C(C=Cc1ccc(O)cc1)Nc1ccc(O)cc1C(=O)O", "note": "[Avenanthramide A, N-(4′-hydroxycinnamoyl)-5-hydroxyanthranilic acid]", "values": [
      {"measurement": "Effect of 4-hydroxyacetophenone on solubility", "setting": "[1]; 4-hydroxyacetophenone 0.01 wt %", "value": "improves the solubility"},
      {"measurement": "Appearance of solution", "setting": "[1]; [3]", "value": "clear solutions without turbidity or precipitation"}
    ]},
    {"smiles": "O=C(C=Cc1ccc(O)c(O)c1)Nc1ccc(O)cc1C(=O)O", "note": "[Avenanthramide C, N-(3′-4′-dihydroxycinnamoyl)-5-hydroxyanthranilic acid]", "values": [
      {"measurement": "Antioxidant activity, ranking among Avns", "setting": "[2]", "value": "highest activity"}
    ]},
    {"smiles": "O=C(/C=C/C=C/c1ccc(O)cc1)Nc1ccc(O)cc1C(=O)O", "note": "[Avenanthramide L]", "values": [
      {"measurement": "Appearance of solution", "setting": "[1]; 4-hydroxyacetophenone concentration increased to 0.5% as in Table 4 b", "value": "clear solution"},
      {"measurement": "Appearance of solution", "setting": "[1]; [3]", "value": "clear solutions without turbidity or precipitation"},
      {"measurement": "Effect of addition of 4-hydroxyacetophenone on solubility / appearance", "setting": "[1]; versus solution without 4-hydroxyacetophenone, increasing concentration", "value": "improved"}
    ]},
    {"smiles": "O=C(CCc1ccc(O)cc1)Nc1ccccc1C(=O)O", "note": "[Dihydroavenanthramide D, 2-[(3-(4-hydroxyphenyl)propanoyl]amido)benzoic acid]", "values": [
      {"measurement": "Appearance of solution", "setting": "[1]; addition of 4-hydroxyacetophenone in concentrations of 0.5 to 1.0% (Tables 7 a and 7 b)", "value": "clear solutions withouts turbidity or precipitation"}
    ]}
  ]
}
